Assays:
[1] = In vitro liver microsomal stability, human; type: in vitro ADME; conditions: 1 μM compound, 500 μg/mL liver microsomes, NADPH
MDA-MB-436 cells = test: In vitro inhibition of MDA-MB-436 cell proliferation (CTG, 10 days); type: cell-based; conditions: Homo sapiens, MDA-MB-436, 240 h, 10 days incubation, read-out: Inhibitory activity against MDA-MB-436 cells (IC50)
Protocol: MDA-MB-436 cells were seeded in a 96-well low-adsorption plate at 1200 cells/well. After the cells adhered to the wall overnight, the serially diluted compound was added, and the cells were incubated for another 10 days. The ATP level of the cells was then determined by CTG to evaluate the cell growth. The growth inhibition percentages and IC50 of the compounds were calculated compared to the DMSO group.

[2] = In vitro liver microsomal stability, mouse; type: in vitro ADME; conditions: 1 μM compound, 500 μg/mL liver microsomes, NADPH
[3] = test system: MDA-MB-436 xenograft tumor; test: In vivo efficacy in MDA-MB-436 xenograft tumor model; set-up: species or system mouse; conditions: for Tumor growth inhibition rate: after 28 days
Protocol: MDA-MB-436 cells were subjected to adherent culture in an L-15 medium containing 10% fetal bovine serum and 1% AA at 37° C. with 5% CO2. The cells were digested with trypsin and routinely passaged twice a week. When cells were maintained in the exponential growth phase with viability greater than 95%, the cells were collected, counted, and inoculated. Each 6- to 8-week-old female BALB/c nude mouse was inoculated with 10×10^6 MDA-MB-436 cells+Matrigel in a volume of 0.2 mL in the right cervicodorsal region. […] The compounds were orally administered once a day, and the tumor volume and body weight of the mice were measured twice a week. After 28 days of administration, the mice were sacrificed. Data were processed using software such as Excel.

[4] = In vivo pharmacokinetic experiment in CD-1 mice; conditions: mouse, plasma, CD-1 female mice; for Vd: read-out: Vdss
Protocol: CD-1 female mice aged 7 to 10 weeks were intravenously administered and orally administered at doses of 1 mg/kg and 10 mg/kg, respectively.
On the day of the experiment, animals in the intravenous group were given the corresponding compound by single injection via the tail vein at an administration volume of 2 mL/kg, and animals in the oral group were given the corresponding compound by single intragastric injection at an administration volume of 10 mL/kg. The animals were weighed before administration, and their administration volume was calculated according to their body weight. […] About […] of whole blood was collected through the orbital venous plexus at each time point and used to prepare plasma for concentration determination by high performance liquid chromatography-tandem mass spectrometry (LC-MS/MS). All animals were suffocated by CO2 after the PK samples were collected at the last time point. The plasma concentrations were processed using a non-compartmental model of Winnolin™ version 8.2 (Pharsight, mountain View, CA) pharmacokinetic software, and the pharmacokinetic parameters were calculated using a linear-log trapezoidal method.

[5] = 0 days (start of administration), BALB/c nude mice
[6] = 28 days, oral once a day, […] day 1-7 and 3 mg/kg day 8-28
[7] = oral once a day, […] day 1-7 and 3 mg/kg day 8-28

SMILES	half-life at 1 μM [1]	IC50 (MDA-MB-436 cells)	half-life at 1 μM [2]	Mean tumor volume [3, 5]	Mean tumor volume [3, 6]	Tumor growth inhibition rate [3, 7]	AUC(0-t) ([4]; iv, Injection (1 mg/kg))	clearance ([4]; iv, Injection (1 mg/kg))	half-life ([4]; iv, Injection (1 mg/kg))	Vd ([4]; iv, Injection (1 mg/kg))	AUC(0-t) ([4]; Oral administration (10 mg/kg))	Cmax ([4]; Oral administration (10 mg/kg))	Tmax ([4]; Oral administration (10 mg/kg))	bioavailability ([4]; Oral administration (10 mg/kg))	half-life ([4]; Oral administration (10 mg/kg))
CNC(=O)c1ccc(N2CCN(Cc3ccc4nc(C)c(=O)[nH]c4c3F)CC2)c(F)n1 [AZD9574, reference compound]	1.72 h	9 nM	2.1 h	212 mm^3	126 mm^3	141%	2550 ng·h/mL	6.42 mL/min/kg	4.54 h	2.03 L/kg	25400 ng·h/mL	5140 ng/mL	0.5 h	99.5%	4.37 h
Cc1nc2ccc(CN3CCN(c4ccc(C(=O)N[C@H]5C[C@H]5F)nc4F)CC3)cc2[nH]c1=O [Compound 1]	8.23 h	1.6 nM	4.88 h	212 mm^3	87 mm^3	159%	3680 ng·h/mL	4.52 mL/min/kg	3.13 h	1.13 L/kg	60800 ng·h/mL	14800 ng/mL	0.17 h	166%	2.08 h
Cc1nc2ccc(CN3CCN(c4ccc(C(=O)N[C@@H]5C[C@@H]5F)nc4F)CC3)cc2[nH]c1=O [Compound 2]	3.88 h	2.4 nM	5.15 h	–	–	–	2120 ng·h/mL	7.7 mL/min/kg	1.48 h	0.76 L/kg	30900 ng·h/mL	10600 ng/mL	0.5 h	146%	1.71 h
CCc1nc2ccc(CN3CCN(c4ccc(C(=O)N[C@@H]5C[C@@H]5F)nc4F)CC3)cc2[nH]c1=O [Compound 6]	–	2.6 nM	–	–	–	–	–	–	–	–	–	–	–	–	–
Cc1nc2ccc(CN3CCN(c4ccc(C(=O)NC5CC5)nc4F)CC3)cc2[nH]c1=O [Compound 9]	3.8 h	3.7 nM	9.43 h	212 mm^3	185 mm^3	113%	3590 ng·h/mL	4.62 mL/min/kg	3.41 h	0.73 L/kg	60800 ng·h/mL	16000 ng/mL	0.08 h	192%	1.89 h
Cc1nc2ccc(CN3CCN(c4ccc(C(=O)NC5CC5)nc4F)CC3)c(F)c2[nH]c1=O [Compound 10]	1.67 h	16 nM	14.4 h	–	–	–	2170 ng·h/mL	7.5 mL/min/kg	5.07 h	2.38 L/kg	20400 ng·h/mL	4530 ng/mL	0.17 h	93%	3.8 h
CCc1nc2ccc(CN3CCN(c4ccc(C(=O)N[C@H]5C[C@H]5F)nc4F)CC3)cc2[nH]c1=O [Compound 11]	–	1.7 nM	–	–	–	–	–	–	–	–	–	–	–	–	–

From patent publication US20260265221A1, “PARP INHIBITOR, AND PREPARATION METHOD THEREFOR AND MEDICAL USE THEREOF” (WIGEN BIOMEDICINE TECHNOLOGY (SHANGHAI) CO., LTD., priority 2023, published 2026)
